Assay results reported in paper PMC8330742, “New benzothieno[2,3-c]pyridines as non-steroidal CYP17 inhibitors: design, synthesis, anticancer screening, apoptosis induction, and in silico ADME profile studies” (Journal of Enzyme Inhibition and Medicinal Chemistry, 2021).

How the values were obtained:
CCRF-CEM = test: NCI-60 SRB screen; format: cell-based; settings: single dose 10^−5 M
HL-60(TB) = test: NCI-60 SRB screen; format: cell-based, human; settings: HL-60 (TB); single dose 10^−5 M
K-562 = test: NCI-60 SRB screen; format: cell-based, human; settings: K-562; single dose 10^−5 M
MOLT-4 = test: NCI-60 SRB screen; format: cell-based; settings: MOLT-4; single dose 10^−5 M
RPMI-8226 = test: NCI-60 SRB screen; format: cell-based; settings: RPMI-8226; single dose 10^−5 M
SR = test: NCI-60 SRB screen; format: cell-based; settings: single dose 10^−5 M
A549/ATCC = test: NCI-60 SRB screen; format: cell-based, human; settings: single dose 10^−5 M
EKVX = test: NCI-60 SRB screen; format: cell-based, human; settings: single dose 10^−5 M
HOP-62 = test: NCI-60 SRB screen; format: cell-based, human; settings: HOP-62; single dose 10^−5 M
HOP-92 = test: NCI-60 SRB screen; format: cell-based, human; settings: HOP-92; single dose 10^−5 M
NCI-H226 = test: NCI-60 SRB screen; format: cell-based, human; settings: NCI-H226; single dose 10^−5 M
NCI-H23 = test: NCI-60 SRB screen; format: cell-based, human; settings: NCI-H23; single dose 10^−5 M
NCI-H322M = test: NCI-60 SRB screen; format: cell-based, human; settings: single dose 10^−5 M
NCI-H460 = test: NCI-60 SRB screen; format: cell-based, human; settings: NCI-H460; single dose 10^−5 M
NCI-H522 = test: NCI-60 SRB screen; format: cell-based, human; settings: NCI-H522; single dose 10^−5 M
COLO 205 = test: NCI-60 SRB screen; format: cell-based, human; settings: COLO 205; single dose 10^−5 M
HCC-2998 = test: NCI-60 SRB screen; format: cell-based, human; settings: HCC-2998; single dose 10^−5 M
HCT-116 = test: NCI-60 SRB screen; format: cell-based, human; settings: HCT-116; single dose 10^−5 M
HCT-15 = test: NCI-60 SRB screen; format: cell-based, human; settings: HCT-15; single dose 10^−5 M
HT-29 = test: NCI-60 SRB screen; format: cell-based; settings: HT-29; single dose 10^−5 M
KM12 = test: NCI-60 SRB screen; format: cell-based, human; settings: KM12; single dose 10^−5 M
SW-620 = test: NCI-60 SRB screen; format: cell-based; settings: SW-620; single dose 10^−5 M
SF-268 = test: NCI-60 SRB screen; format: cell-based, human; settings: SF-268; single dose 10^−5 M
SF-295 = test: NCI-60 SRB screen; format: cell-based, human; settings: SF-295; single dose 10^−5 M
SF-539 = test: NCI-60 SRB screen; format: cell-based, human; settings: SF-539; single dose 10^−5 M
SNB-19 = test: NCI-60 SRB screen; format: cell-based; settings: SNB-19; single dose 10^−5 M
SNB-75 = test: NCI-60 SRB screen; format: cell-based, human; settings: SNB-75; single dose 10^−5 M
U251 = test: NCI-60 SRB screen; format: cell-based, human; settings: U251; single dose 10^−5 M
LOX IMVI = test: NCI-60 SRB screen; format: cell-based, human; settings: single dose 10^−5 M
MALME-3M = test: NCI-60 SRB screen; format: cell-based, human; settings: single dose 10^−5 M
M14 = test: NCI-60 SRB screen; format: cell-based, human; settings: M14; single dose 10^−5 M
MDA-MB-435 = test: NCI-60 SRB screen; format: cell-based; settings: MDA-MB435; single dose 10^−5 M
SK-MEL-2 = test: NCI-60 SRB screen; format: cell-based, human; settings: SK-MEL-2; single dose 10^−5 M
SK-MEL-28 = test: NCI-60 SRB screen; format: cell-based; settings: SK-MEL-28; single dose 10^−5 M
SK-MEL-5 = test: NCI-60 SRB screen; format: cell-based, human; settings: SK-MEL-5; single dose 10^−5 M
UACC-257 = test: NCI-60 SRB screen; format: cell-based, human; settings: UACC-275 (so in the source); single dose 10^−5 M
UACC-62 = test: NCI-60 SRB screen; format: cell-based, human; settings: UACC-62; single dose 10^−5 M
IGROV1 = test: NCI-60 SRB screen; format: cell-based, human; settings: IGROV1; single dose 10^−5 M
OVCAR-3 = test: NCI-60 SRB screen; format: cell-based, human; settings: OVCAR-3; single dose 10^−5 M
OVCAR-4 = test: NCI-60 SRB screen; format: cell-based, human; settings: OVCAR-4; single dose 10^−5 M
OVCAR-5 = test: NCI-60 SRB screen; format: cell-based, human; settings: OVCAR-5; single dose 10^−5 M
OVCAR-8 = test: NCI-60 SRB screen; format: cell-based, human; settings: OVCAR-8; single dose 10^−5 M
NCI/ADR-RES = test: NCI-60 SRB screen; format: cell-based, human; settings: single dose 10^−5 M
SK-OV-3 = test: NCI-60 SRB screen; format: cell-based, human; settings: SK-OV-3; single dose 10^−5 M
786-0 = test: NCI-60 SRB screen; format: cell-based; settings: 786-0; single dose 10^−5 M
A498 = test: NCI-60 SRB screen; format: cell-based, human; settings: A498; single dose 10^−5 M
ACHN = test: NCI-60 SRB screen; format: cell-based; settings: single dose 10^−5 M
CAKI-1 = test: NCI-60 SRB screen; format: cell-based, human; settings: CAKI-1; single dose 10^−5 M
RXF 393 = test: NCI-60 SRB screen; format: cell-based, human; settings: RXF 393; single dose 10^−5 M
SN12C = test: NCI-60 SRB screen; format: cell-based, human; settings: SN 12 C; single dose 10^−5 M
TK-10 = test: NCI-60 SRB screen; format: cell-based, human; settings: TK-10; single dose 10^−5 M
UO-31 = test: NCI-60 SRB screen; format: cell-based, human; settings: UO-31; single dose 10^−5 M
[1] = test system: panel of 60 cancer cell lines; test: NCI-60 SRB screen, mean or range over the panel; format: cell-based, human; settings: mean over the cell lines; single dose 10^−5 M

SMILES: COc1ccc(C2NC(=O)Cc3c2sc2c(F)cccc32)c(OC)c1 (stereo not shown) [Compound 3a]
- Growth inhibition (%) (CCRF-CEM): −5.88%
- Growth inhibition (%) (HL-60(TB)): −7.79%
- Growth inhibition (%) (K-562): 12.84%
- Growth inhibition (%) (MOLT-4): 2.64%
- Growth inhibition (%) (RPMI-8226): −2.54%
- Growth inhibition (%) (SR): 28.66%
- Growth inhibition (%) (A549/ATCC): −10.00%
- Growth inhibition (%) (EKVX): 7.10%
- Growth inhibition (%) (HOP-62): 11.63%
- Growth inhibition (%) (HOP-92): 2.88%
- Growth inhibition (%) (NCI-H226): 13.11%
- Growth inhibition (%) (NCI-H23): 0.15%
- Growth inhibition (%) (NCI-H322M): −3.18%
- Growth inhibition (%) (NCI-H460): 2.47%
- Growth inhibition (%) (NCI-H522): 4.48%
- Growth inhibition (%) (COLO 205): −16.49%
- Growth inhibition (%) (HCC-2998): −15.27%
- Growth inhibition (%) (HCT-116): −0.50%
- Growth inhibition (%) (HCT-15): −3.42%
- Growth inhibition (%) (HT-29): −7.86%
- Growth inhibition (%) (KM12): 7.40%
- Growth inhibition (%) (SW-620): 3.98%
- Growth inhibition (%) (SF-268): 8.45%
- Growth inhibition (%) (SF-295): −2.52%
- Growth inhibition (%) (SF-539): 11.49%
- Growth inhibition (%) (SNB-19): 1.20%
- Growth inhibition (%) (SNB-75): 17.27%
- Growth inhibition (%) (U251): 2.07%
- Growth inhibition (%) (LOX IMVI): 5.88%
- Growth inhibition (%) (MALME-3M): 15.80%
- Growth inhibition (%) (M14): 4.96%
- Growth inhibition (%) (MDA-MB-435): 9.40%
- Growth inhibition (%) (SK-MEL-2): −25.13%
- Growth inhibition (%) (SK-MEL-28): −11.36%
- Growth inhibition (%) (SK-MEL-5): 2.83%
- Growth inhibition (%) (UACC-257): −6.31%
- Growth inhibition (%) (UACC-62): 10.62%
- Growth inhibition (%) (IGROV1): 8.40%
- Growth inhibition (%) (OVCAR-3): −0.33%
- Growth inhibition (%) (OVCAR-4): 3.35%
- Growth inhibition (%) (OVCAR-5): −3.20%
- Growth inhibition (%) (OVCAR-8): −3.27%
- Growth inhibition (%) (NCI/ADR-RES): −2.37%
- Growth inhibition (%) (SK-OV-3): −0.85%
- Growth inhibition (%) (786-0): −7.41%
- Growth inhibition (%) (A498): 9.33%
- Growth inhibition (%) (ACHN): 1.30%
- Growth inhibition (%) (CAKI-1): 23.33%
- Growth inhibition (%) (RXF 393): −2.63%
- Growth inhibition (%) (SN12C): −0.49%
- Growth inhibition (%) (TK-10): −29.42%
- Growth inhibition (%) (UO-31): 32.68%
- Mean growth inhibition (%) [1]: 6.67%

SMILES: O=C1Cc2c(sc3c(F)cccc23)C(c2ccccc2[N+](=O)[O-])N1 (stereo not shown) [Compound 3c]
- Growth inhibition (%) (CCRF-CEM): −10.16%
- Growth inhibition (%) (HL-60(TB)): −15.87%
- Growth inhibition (%) (K-562): 2.86%
- Growth inhibition (%) (MOLT-4): −5.89%
- Growth inhibition (%) (RPMI-8226): 4.62%
- Growth inhibition (%) (SR): 0.60%
- Growth inhibition (%) (A549/ATCC): −5.43%
- Growth inhibition (%) (EKVX): 15.84%
- Growth inhibition (%) (HOP-62): 8.52%
- Growth inhibition (%) (HOP-92): 7.78%
- Growth inhibition (%) (NCI-H226): 20.72%
- Growth inhibition (%) (NCI-H23): 1.41%
- Growth inhibition (%) (NCI-H322M): 1.00%
- Growth inhibition (%) (NCI-H460): 23.13%
- Growth inhibition (%) (NCI-H522): −1.98%
- Growth inhibition (%) (COLO 205): −12.74%
- Growth inhibition (%) (HCC-2998): −18.72%
- Growth inhibition (%) (HCT-116): 14.07%
- Growth inhibition (%) (HCT-15): −10.00%
- Growth inhibition (%) (HT-29): −12.09%
- Growth inhibition (%) (KM12): −0.49%
- Growth inhibition (%) (SW-620): 20.70%
- Growth inhibition (%) (SF-268): 6.16%
- Growth inhibition (%) (SF-295): −0.58%
- Growth inhibition (%) (SF-539): 10.42%
- Growth inhibition (%) (SNB-19): −0.33%
- Growth inhibition (%) (SNB-75): 10.03%
- Growth inhibition (%) (U251): 14.88%
- Growth inhibition (%) (LOX IMVI): 2.71%
- Growth inhibition (%) (MALME-3M): 5.53%
- Growth inhibition (%) (M14): −0.72%
- Growth inhibition (%) (MDA-MB-435): −7.97%
- Growth inhibition (%) (SK-MEL-2): −25.53%
- Growth inhibition (%) (SK-MEL-28): −20.20%
- Growth inhibition (%) (SK-MEL-5): 2.72%
- Growth inhibition (%) (UACC-257): −19.98%
- Growth inhibition (%) (UACC-62): 12.83%
- Growth inhibition (%) (IGROV1): 34.55%
- Growth inhibition (%) (OVCAR-3): 2.18%
- Growth inhibition (%) (OVCAR-4): 7.00%
- Growth inhibition (%) (OVCAR-5): −8.05%
- Growth inhibition (%) (OVCAR-8): −7.33%
- Growth inhibition (%) (NCI/ADR-RES): −5.76%
- Growth inhibition (%) (SK-OV-3): 6.94%
- Growth inhibition (%) (786-0): −9.68%
- Growth inhibition (%) (A498): −15.47%
- Growth inhibition (%) (ACHN): −0.56%
- Growth inhibition (%) (CAKI-1): 24.17%
- Growth inhibition (%) (RXF 393): −24.83%
- Growth inhibition (%) (SN12C): 0.94%
- Growth inhibition (%) (TK-10): −41.81%
- Growth inhibition (%) (UO-31): 30.62%
- Mean growth inhibition (%) [1]: 1.33%
